Results: paper PMC2364081, “Antagonists of retinoic acid receptors (RARs) are potent growth inhibitors of prostate carcinoma cells” (British Journal of Cancer, 2001)

How the values were obtained:
RARα [1] = biological target: T1, RARα (Homo sapiens, UniProt P10276); assay: Transactivation by RARα in doubly transfected CV-1 cells (MTV-TREp-LUC reporter); assay type: cell-based; set-up: expressed in transfected cells; host or cells: CV-1 cells
T1 sequence (P10276 1-462): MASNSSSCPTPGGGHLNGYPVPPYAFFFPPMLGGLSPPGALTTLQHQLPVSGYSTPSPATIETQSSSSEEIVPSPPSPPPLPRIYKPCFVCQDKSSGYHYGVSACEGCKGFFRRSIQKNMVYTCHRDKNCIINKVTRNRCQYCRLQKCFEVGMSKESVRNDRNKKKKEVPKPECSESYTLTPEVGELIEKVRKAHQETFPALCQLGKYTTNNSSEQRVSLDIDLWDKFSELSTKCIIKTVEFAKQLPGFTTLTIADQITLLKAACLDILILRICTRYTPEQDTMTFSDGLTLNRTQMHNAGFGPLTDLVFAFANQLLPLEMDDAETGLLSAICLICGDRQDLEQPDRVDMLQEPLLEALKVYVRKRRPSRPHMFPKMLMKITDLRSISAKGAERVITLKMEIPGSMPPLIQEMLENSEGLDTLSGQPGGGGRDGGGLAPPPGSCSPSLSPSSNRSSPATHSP
From the text: (§1) Prostate cancer is one of the most common cancers in European and American males and has a high mortality rate (Landis et al, 1998; Rosenthal, 1998). Early disease is managed conservatively in Europe although in selected patients surgery is curative. In advanced disease, androgen ablation can produce symptomatic improvement, but the tumour often re-emerges in an androgen- independent and incurable form. One proposed treatment for androgen-independent prostate carcinoma is differentiation ther- apy, in which agents such as all-trans-retinoic acid (ATRA), 9-cis- retinoic acid and 1, 25-dihydroxyvitamin D3 (D3 ) are used to induce growth arrest, differentiation and sometimes apoptosis of the tumour cells (Liang et al, 1999; de Vos et al, 1997; Skowronski et al, 1994; Hedlund et al, 1997). ATRA and synthetic analogues exert their biological effects by binding to two families of retinoid receptors, the RARs (RAR, RAR and RAR) and the RXRs (RXR, RXR and RXR). These are ligand-dependent transcription factors of the steroid/thyroid hormone nuclear receptor superfamily (Chambon 1994; Boehm et al, 1995). Activated RARs bind to retinoic acid-responsive elements (RAREs) in the promoters of genes and thus regulate gene expression. They also antagonize the activity of the tran- scription factor AP1 and thereby down-regulate the expression of some AP1-activated genes (Nagpal et al, 1995). One approach to unravelling the contributions of RAR sub-types to these actions has been the development of synthetic retinoids with selective activities at individual RARs and RXRs. For example, the diaryl- acetylenic retinoids allow separation of transactivation and AP1 antagonism functions at RAR (Nagpal et al, 1995). Recently, compounds that are selective for particular RAR sub-types have been synthesized: these include both agonists and antagonists (Chandraratna, 1995; Teng et al, 1999; Johnson et al, 1999). The functional selectivity of these compounds may open the way to achieving differentiation or apoptosis of tumour cells with minimal systemic side effects (Chandraratna, 1995). […]

RARβ [2] = biological target: T2, RARβ (Homo sapiens, UniProt P10826); assay: Transactivation by RARβ in doubly transfected CV-1 cells (MTV-TREp-LUC reporter); assay type: cell-based; set-up: expressed in transfected cells; host or cells: CV-1 cells; key to EC50 transactivation RARβ: NA: inactive; WA: weak partial agonist
T2 sequence (P10826 1-455): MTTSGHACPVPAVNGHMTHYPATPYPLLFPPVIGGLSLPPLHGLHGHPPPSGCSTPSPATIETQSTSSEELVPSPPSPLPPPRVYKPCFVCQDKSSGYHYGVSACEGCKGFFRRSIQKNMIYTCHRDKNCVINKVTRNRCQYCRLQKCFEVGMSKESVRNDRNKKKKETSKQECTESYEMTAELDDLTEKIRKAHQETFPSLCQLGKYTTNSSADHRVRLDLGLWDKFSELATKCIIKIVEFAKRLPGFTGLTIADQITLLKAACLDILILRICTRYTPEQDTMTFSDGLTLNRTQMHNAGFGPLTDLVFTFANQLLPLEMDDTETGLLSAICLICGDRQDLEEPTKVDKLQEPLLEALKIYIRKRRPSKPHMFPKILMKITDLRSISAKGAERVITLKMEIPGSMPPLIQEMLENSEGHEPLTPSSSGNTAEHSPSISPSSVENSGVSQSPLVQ
From the text: as §1

RARγ [3] = biological target: T3, RARγ (Homo sapiens, UniProt P13631); assay: Transactivation by RARγ in doubly transfected CV-1 cells (MTV-TREp-LUC reporter); assay type: cell-based; set-up: expressed in transfected cells; host or cells: CV-1 cells
T3 sequence (P13631 1-454): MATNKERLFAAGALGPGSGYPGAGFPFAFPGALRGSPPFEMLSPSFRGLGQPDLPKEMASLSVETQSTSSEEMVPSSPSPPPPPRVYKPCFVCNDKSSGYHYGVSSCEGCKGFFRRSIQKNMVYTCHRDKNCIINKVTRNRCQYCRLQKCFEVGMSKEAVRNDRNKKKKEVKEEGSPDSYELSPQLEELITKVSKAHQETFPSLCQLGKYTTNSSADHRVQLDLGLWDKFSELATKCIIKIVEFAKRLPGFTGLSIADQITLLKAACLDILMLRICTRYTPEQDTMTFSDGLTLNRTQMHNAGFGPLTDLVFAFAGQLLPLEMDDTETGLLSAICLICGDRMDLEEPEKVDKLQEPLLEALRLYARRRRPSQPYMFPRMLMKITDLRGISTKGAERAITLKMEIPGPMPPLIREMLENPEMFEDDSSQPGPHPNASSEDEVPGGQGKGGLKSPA
From the text: as §1, with “1995).” for “1995). One approach to unravelling the contributions of RAR sub-types to these actions has been the development of synthetic retinoids with selective activities at individual RARs and RXRs. For example, the diaryl- acetylenic retinoids allow separation of transactivation and AP1 antagonism functions at RAR (Nagpal et al, 1995). Recently, compounds that are selective for particular RAR sub-types have been synthesized: these include both agonists and antagonists (Chandraratna, 1995; Teng et al, 1999; Johnson et al, 1999). The functional selectivity of these compounds may open the way to achieving differentiation or apoptosis of tumour cells with minimal systemic side effects (Chandraratna, 1995).”

RARγ [4] = biological target: T3, RARγ; assay: Binding to baculovirus-expressed RARγ; set-up: made in house; conditions: baculovirus-expressed receptor
From the text: (§2) Prostate cancer is one of the most common cancers in European and American males and has a high mortality rate (Landis et al, 1998; Rosenthal, 1998). Early disease is managed conservatively in Europe although in selected patients surgery is curative. In advanced disease, androgen ablation can produce symptomatic improvement, but the tumour often re-emerges in an androgen- independent and incurable form. One proposed treatment for androgen-independent prostate carcinoma is differentiation ther- apy, in which agents such as all-trans-retinoic acid (ATRA), 9-cis- retinoic acid and 1, 25-dihydroxyvitamin D3 (D3 ) are used to induce growth arrest, differentiation and sometimes apoptosis of the tumour cells (Liang et al, 1999; de Vos et al, 1997; Skowronski et al, 1994; Hedlund et al, 1997). ATRA and synthetic analogues exert their biological effects by binding to two families of retinoid receptors, […]. These are ligand-dependent transcription factors of the steroid/thyroid hormone nuclear receptor superfamily (Chambon 1994; Boehm et al, 1995). Activated RARs bind to retinoic acid-responsive elements (RAREs) in the promoters of genes and thus regulate gene expression. They also antagonize the activity of the tran- scription factor AP1 and thereby down-regulate the expression of some AP1-activated genes (Nagpal et al, 1995). One approach to unravelling the contributions of RAR sub-types to these actions has been the development of synthetic retinoids with selective activities at individual RARs and RXRs. For example, the diaryl- acetylenic retinoids allow separation of transactivation and AP1 antagonism functions at RAR (Nagpal et al, 1995). Recently, compounds that are selective for particular RAR sub-types have been synthesized: these include both agonists and antagonists (Chandraratna, 1995; Teng et al, 1999; Johnson et al, 1999). The functional selectivity of these compounds may open the way to achieving differentiation or apoptosis of tumour cells with minimal systemic side effects (Chandraratna, 1995). Cell lines that are commonly used in the evaluation of investiga- tional agents for prostate cancer include LNCaP, DU-145 and PC- 3. […] These lines are relatively insensitive to growth inhibition and induction of apoptosis by ATRA and by synthetic agonists. […] Fenretinide (4HPR) induces apoptosis of LNCaP and of PC-3 cells at 1-5 M and 25 µM, respectively (Pienta et al, 1993; Heish and Wu, 1997). Pfahl and colleagues examined the growth inhibitory effects of a panel of receptor-selective retinoids against DU145 and PC-3 cells and achieved complete growth inhibition and induction of apoptosis between 1 M and 10 M (Lu et al, 1999). […] Antagonists of retinoic acid receptors (RARs) are potent growth inhibitors of prostate carcinoma cells LA Hammond1 , CH Van Krinks2 , J Durham2 , SE Tomkins2 , RD Burnett3 , EL Jones1 , RAS Chandraratna3 and G Brown2 Divisions of 1 Cancer Studies and of 2 Immunity and Infection, University of Birmingham Medical School, Edgbaston, Birmingham B15 2TT, UK and 3 Retinoid Research, Allergan Inc., Irvine, California, USA Summary Novel synthetic antagonists of retinoic acid receptors (RARs) have been developed. To avoid interference by serum retinoids when testing these compounds, we established serum-free grown sub-lines (>3 years) of the prostate carcinoma lines LNCaP, PC3 and DU145. […] A component(s) of serum and of LNCaP-conditioned medium diminishes the activity of antagonists: this factor is not the most likely candidates IGF-1 and EGF. In vitro studies of RAR antagonists together with data from RAR-null mice lead to the hypothesis that RAR-regulated gene transcription is necessary for the survival and maintenance of prostate epithelium. […]

RARβ [5] = biological target: T2, RARβ; assay: Binding to baculovirus-expressed RARβ; set-up: made in house; conditions: baculovirus-expressed receptor
From the text: as §2

RARα [6] = biological target: T1, RARα; assay: Binding to baculovirus-expressed RARα; set-up: made in house; conditions: baculovirus-expressed receptor
From the text: as §2

Structure (SMILES) | EC50 (RARα [1]) [nM] | EC50 (RARβ [2]) [nM] | EC50 (RARγ [3]) [nM] | Kd (RARγ [4]) [nM] | Kd (RARβ [5]) [nM] | Kd (RARα [6]) [nM] | EC50 transactivation RARβ (RARβ [2])
CC1(C)CCSc2ccc(C#Cc3ccc(C(=O)O)cn3)cc21 [AGN190299] | > 1000 | 18 | 42 | 57 | 41 | 616 | –
CC1(C)CCC(C)(C)c2cc(C(=O)Nc3cc(F)c(C(=O)O)c(F)c3)c(O)cc21 [AGN194078] | 140 | – | – | > 5000 | > 5000 | 4 | WA
